# From patent publication US20110053982A1, “ETHER BENZYLIDENE PIPERIDINE 5-MEMBERED ARYL CARBOXAMIDE COMPOUNDS USEFUL AS FAAH INHIBITORS” (PFIZER INC., priority 2008, published 2011)
# Experiments:
# rFAAH = target: T1, rFAAH (Rattus norvegicus, UniProt P97612); experiment: FAAH assay, rFAAH kobs/I; format: biochemical; details: additional data table, unit not given
# T1 sequence (P97612 1-579): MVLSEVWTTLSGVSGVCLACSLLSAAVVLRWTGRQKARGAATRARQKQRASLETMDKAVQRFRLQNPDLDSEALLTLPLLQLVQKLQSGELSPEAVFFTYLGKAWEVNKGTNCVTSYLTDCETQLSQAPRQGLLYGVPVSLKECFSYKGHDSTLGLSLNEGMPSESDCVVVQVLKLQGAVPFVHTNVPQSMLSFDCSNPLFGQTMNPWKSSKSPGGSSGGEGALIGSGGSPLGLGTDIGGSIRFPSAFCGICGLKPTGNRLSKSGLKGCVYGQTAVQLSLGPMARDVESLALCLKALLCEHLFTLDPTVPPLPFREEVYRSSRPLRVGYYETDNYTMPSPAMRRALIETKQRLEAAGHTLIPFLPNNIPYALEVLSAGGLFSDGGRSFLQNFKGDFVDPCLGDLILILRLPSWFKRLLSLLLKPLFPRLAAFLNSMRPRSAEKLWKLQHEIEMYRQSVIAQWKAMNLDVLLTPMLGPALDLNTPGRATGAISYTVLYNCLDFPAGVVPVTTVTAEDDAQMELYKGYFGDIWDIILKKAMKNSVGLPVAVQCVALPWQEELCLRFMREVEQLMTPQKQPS
# Human FAAH = target: T2, Human FAAH (Homo sapiens, UniProt O00519); experiment: FAAH assay, kinetic analysis of irreversible inhibition (kinact/Ki); format: biochemical; details: additional data table, unit inferred, read-out: hFAAH_Kinact/Ki
# T2 construct: made in house
# T2 sequence (O00519 32-579 limits assumed): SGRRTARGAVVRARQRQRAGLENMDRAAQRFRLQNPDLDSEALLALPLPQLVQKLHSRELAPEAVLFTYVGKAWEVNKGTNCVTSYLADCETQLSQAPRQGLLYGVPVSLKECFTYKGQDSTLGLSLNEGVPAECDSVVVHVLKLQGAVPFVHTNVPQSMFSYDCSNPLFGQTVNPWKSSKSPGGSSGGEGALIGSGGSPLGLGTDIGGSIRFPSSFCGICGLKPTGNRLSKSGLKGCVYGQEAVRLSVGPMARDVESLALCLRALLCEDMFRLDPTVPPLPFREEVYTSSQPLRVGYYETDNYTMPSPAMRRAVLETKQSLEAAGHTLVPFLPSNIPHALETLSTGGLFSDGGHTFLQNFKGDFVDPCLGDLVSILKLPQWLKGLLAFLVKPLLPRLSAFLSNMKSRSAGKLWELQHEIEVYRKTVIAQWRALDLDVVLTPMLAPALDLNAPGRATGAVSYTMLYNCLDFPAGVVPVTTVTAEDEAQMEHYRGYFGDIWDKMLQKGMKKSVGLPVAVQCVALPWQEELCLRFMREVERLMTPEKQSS
# Experimental: A FAAH assay may be carried out in 384-well clear polystyrene plates in a total volume of 50 μl per well. All percents are by volume. To each well is placed the reaction mixture (40 μl) containing 1-4 nM FAAH, 50 mM NaPi, pH 7.4, 3 mM α-ketoglutarate, 0.15 mM NADH, 7.5 U/ml glutamate dehydrogenase, 2 mM ADP, 1 mM EDTA, and 0.1% Triton X-100 (The concentration shown for each component is the final concentration in the assay). To this mixture is added 5 μl of a compound of Examples 1 to 20 at various concentrations prepared in 50% DMSO (or 5 μl 50% DMSO for controls). This is immediately followed by the addition of 5 μl oleamide (500 μM) dissolved in […] and the reaction mixture is mixed for 1.5 min. The final concentrations of DMSO and EtOH in the assay are each 7.5%. The reactions is then incubated at 30° C. and the absorbance at 340 nm is collected over a period of 90 min with readings taken in 30-second intervals using SpectraMax Plus^384 Microplate Spectrophotometer (Molecular Devices, Sunnyvale, Calif.). Human FAAH used in the assay is prepared as described in the patent application WO 2006/067613. The purity of the enzyme used is preferably greater than 98% based on an analysis by SDS-polyacrylamide gel electrophoresis followed by Coomassie Blue staining.
# Initial velocity data (V) is obtained from the slopes of the initial progressive curves. They are plotted as a function of substrate concentration and fit to the Michaelis-Menten equation (1) using Prism (GraphPad Software, Inc., San Diego, Calif.) software to obtain Km and Vmax values.
# To obtain potencies of irreversible inhibitors, progressive curves consistent with first order inhibition kinetics (two-step irreversible inhibition mechanism) are fit to equation (2) by nonlinear least squares regressions to determine kobs values at each inhibitor concentration, where [P]t is the absorbance at time t, V0 is a constant related to the steady state rate of the uninhibited reaction, and kobs is the first order rate constant for enzyme inactivation. The inhibitor dissociation constant (Ki) and the first order rate
# constant of enzyme inactivation at infinite inhibitor concentration (kinact) are then obtained by fitting the kobs vs. [I] curves to equation (3).
SMILES,FAAH_KINACTR:rFAAH:kobs/I (rFAAH),kinact/KI (Human FAAH)
"Cc1noc(NC(=O)N2CCC(=Cc3cccc(OCCCC(F)(F)F)c3)CC2)c1C [N-(3,4-dimethylisoxazol-5-yl)-4-[3-(4,4,4-trifluorobutoxy)benzylidene]piperidine-1-carboxamide]",1540,12900 M⁻¹ s⁻¹
"Cc1noc(NC(=O)N2CCC(=Cc3cccc(OCCc4cccc(F)c4)c3)CC2)c1C [N-(3,4-dimethylisoxazol-5-yl)-4-{3-[2-(3-fluorophenyl)ethoxy]benzylidene}piperidine-1-carboxamide]",9280,12100 M⁻¹ s⁻¹
"Cc1cccc(OCCOc2cccc(C=C3CCN(C(=O)Nc4onc(C)c4C)CC3)c2)c1 [N-(3,4-dimethylisoxazol-5-yl)-4-{3-[2-(3-methylphenoxy)ethoxy]benzylidene}piperidine-1-carboxamide]",7840,13900 M⁻¹ s⁻¹
"Cc1noc(NC(=O)N2CCC(=Cc3cccc(OCCc4ccc(F)cc4)c3)CC2)c1C [N-(3,4-dimethylisoxazol-5-yl)-4-{3-[2-(4-fluorophenyl)ethoxy]benzylidene}piperidine-1-carboxamide]",7550,12800 M⁻¹ s⁻¹
"Cc1ncsc1CCOc1cccc(C=C2CCN(C(=O)Nc3onc(C)c3C)CC2)c1 [N-(3,4-dimethylisoxazol-5-yl)-4-{3-[2-(4-methyl-1,3-thiazol-5-yl)ethoxy]benzylidene}piperidine-1-carboxamide]",1920,4920 M⁻¹ s⁻¹
Cc1oncc1NC(=O)N1CCC(=Cc2cccc(OC(C)Cc3ccccc3)c2)CC1 (centres unmarked) [N-(5-methylisoxazol-4-yl)-4-[3-(1-methyl-2-phenylethoxy)benzylidene]piperidine-1-carboxamide],208,2150 M⁻¹ s⁻¹
"Cc1oncc1NC(=O)N1CCC(=Cc2cccc(OCC(C)CC(F)(F)F)c2)CC1 (centres unmarked) [N-(5-methylisoxazol-4-yl)-4-[3-(4,4,4-trifluoro-2-methylbutoxy)benzylidene]piperidine-1-carboxamide]",<11.5,3200 M⁻¹ s⁻¹
"Cc1oncc1NC(=O)N1CCC(=Cc2cccc(OCCCC(F)(F)F)c2)CC1 [N-(5-methylisoxazol-4-yl)-4-[3-(4,4,4-trifluorobutoxy)benzylidene]piperidine-1-carboxamide]",<10.0,7410 M⁻¹ s⁻¹
Cc1oncc1NC(=O)N1CCC(=Cc2cccc(OCC3CCCCO3)c2)CC1 (centres unmarked) [N-(5-methylisoxazol-4-yl)-4-[3-(tetrahydro-2H-pyran-2-ylmethoxy)benzylidene]piperidine-1-carboxamide],<11.3,646 M⁻¹ s⁻¹
Cc1cccc(OCCOc2cccc(C=C3CCN(C(=O)Nc4cnoc4C)CC3)c2)c1 [N-(5-methylisoxazol-4-yl)-4-{3-[2-(3-methylphenoxy)ethoxy]benzylidene}piperidine-1-carboxamide],57.1,10600 M⁻¹ s⁻¹
"Cc1ncsc1CCOc1cccc(C=C2CCN(C(=O)Nc3cnoc3C)CC2)c1 [N-(5-methylisoxazol-4-yl)-4-{3-[2-(4-methyl-1,3-thiazol-5-yl)ethoxy]benzylidene}piperidine-1-carboxamide]",<11.9,903 M⁻¹ s⁻¹
O=C(Nc1cnoc1)N1CCC(=Cc2cccc(OCC3CCCCO3)c2)CC1 (centres unmarked) [N-isoxazol-4-yl-4-[3-(tetrahydro-2H-pyran-2-ylmethoxy)benzylidene]piperidine-1-carboxamide],18,384 M⁻¹ s⁻¹
"Cc1ncsc1CCOc1cccc(C=C2CCN(C(=O)Nc3cnoc3)CC2)c1 [N-isoxazol-4-yl-4-{3-[2-(4-methyl-1,3-thiazol-5-yl)ethoxy]benzylidene}piperidine-1-carboxamide]",<10.0,514 M⁻¹ s⁻¹
